In patent publication US8865756B2, “Inhibitors of HCV NS5A” (Presidio Pharmaceuticals, Inc., priority 2008, dated 2014) one finds EC50 data, which are given here for 16 compounds.

This assay relates to HCV 1b_Huh-Luc/Neo-ET cell line persistently expressing a bicistronic genotype 1b replicon in Huh 7 cells. Nature of the assay: HCV replicon assay (luciferase readout). Format: cell-based. The settings on record: Hepatitis C virus, Huh-7, 72 h, read-out: Inhibition of HCV genotype 1b. In outline:
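EC50, determined repeatedly, comes from a four-parameter logistic fit of luciferase signal as percent of untreated control. Readout follows 72 h compound exposure, in triplicate, of the HCV 1b_Huh-Luc/Neo-ET replicon line.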
A general note: A replicon is a self-replicating genome or part of one, used to study replication in cells.

Where only a bound is given, the exact number is not on record here.

Turning to `C[C@H]1OC(=O)N[C@@H]1C(=O)N1CCC[C@H]1c1ncc(-c2ccc(C#Cc3ccc(-c4cnc([C@@H]5CCCN5C(=O)[C@H]5NC(=O)O[C@@H]5C)[nH]4)cc3)cc2)[nH]1` [Compound 979], the EC50 is 10 to 999 nM.
Under `CN(C)C(=O)N[C@@H](C(=O)N1CCC[C@H]1c1ncc(C#Cc2ccc(C#Cc3cnc([C@@H]4CCCN4C(=O)[C@H](NC(=O)N(C)C)c4ccccc4)[nH]3)cc2)[nH]1)c1ccccc1` [Compound 308] stands less than 1 nM.
In the case of `COC(=O)N1CCC[C@H]1C(=O)N1CCC[C@H]1c1ncc(-c2ccc(C#Cc3ccc4nc([C@@H]5CCCN5C(=O)[C@@H]5CCCN5C(=O)OC)[nH]c4c3)cc2)[nH]1` [Compound 1063], the EC50 lay within 10 to 999 nM.
As for `COC(=O)N[C@H](C(=O)N[C@@H](C)c1ncc(-c2ccc(C#Cc3ccc(-c4cnc([C@@H]5CCCN5C(=O)[C@@H](c5ccccc5)N(C)C)[nH]4)cc3)cc2)[nH]1)C(C)C` [Compound 965], the figure is less than 1 nM; as for `COC(=O)N[C@H](C(=O)N1CCC[C@H]1c1ncc(C#Cc2ccc(-c3ccc4nc([C@@H]5CCCN5C(=O)[C@@H](NC(=O)OC)C(C)C)[nH]c4c3)nc2)[nH]1)C(C)C` [Compound 1086], less than 1 nM; as for `CC(C)(C)OC(=O)N[C@@H](C(=O)N1CCC[C@H]1C(=O)NCCc1ccc(C#Cc2cnc([C@@H]3CCCN3C(=O)[C@H](NC(=O)OC(C)(C)C)c3ccccc3)[nH]2)cc1)c1ccccc1` [Compound 124], less than 1 nM.
As for `COC(=O)N[C@@H](C(=O)N1CCC[C@H]1c1ncc(C#Cc2ccc(-c3ccc(-c4cnc([C@@H]5CCCN5C(=O)[C@H](NC(=O)OC)c5ccccc5)[nH]4)cc3)cc2)[nH]1)c1ccccc1` [Compound 750], the figure is less than 1 nM.
`O=C([C@@H](c1ccccc1)N1CCCCC1)N1CCC[C@H]1c1ncc(-c2ccc(C#Cc3ccc(-c4cnc([C@@H]5CCCN5C(=O)[C@@H](c5ccccc5)N5CCCCC5)[nH]4)cc3)cc2)[nH]1` [Compound 205]: the EC50 is less than 1 nM.
As for `COC(=O)N[C@H](C(=O)N1CCC[C@H]1c1ncc(-c2ccc(C#Cc3ccc4nc([C@@H]5CCCN5C(=O)[C@H](NC(=O)OC)c5ccccc5)[nH]c4c3)cc2)[nH]1)C(C)C` [Compound 1023], the figure is less than 1 nM; as for `COC(=O)N[C@@H](C(=O)N1CCC[C@H]1c1nc2ccc(C#Cc3ccc4nc([C@@H]5CCCN5C(=O)[C@H](NC(=O)OC)c5ccccc5)[nH]c4c3)cc2[nH]1)c1ccccc1` [Compound 851], less than 1 nM.
Under `CC(C)[C@@H](NC(=O)C1CC1)C(=O)N1CCC[C@H]1c1ncc(C#Cc2ccc(C#Cc3cnc([C@@H]4CCCN4C(=O)[C@H](NC(=O)C4CC4)C(C)C)[nH]3)cc2)[nH]1` [Compound 302] stands more than 1000 nM; under `COC(=O)N[C@@H](C(=O)N1CCC[C@H]1c1ncc(-c2ccc(C#Cc3ccc(-c4cnc([C@@H]5CCCN5C(=O)[C@H](NC(=O)N5CCC[C@@H]5CO)c5ccccc5)[nH]4)cc3)cc2)[nH]1)c1ccccc1` [Compound 254], less than 1 nM; under `COC(=O)N[C@@H](C(=O)N1CCC[C@H]1c1ncc(C#Cc2ccc(-c3ccc(-c4cnc([C@@H]5CCCN5C(=O)[C@@H](c5ccccc5)N5CCCCC5)[nH]4)cc3)cc2)[nH]1)c1ccccc1` [Compound 752], less than 1 nM.
As for `COC(=O)N[C@@H](C(=O)N1CCC[C@H]1c1ncc(-c2ccc(C#Cc3ccc(-c4cnc([C@@H]5CCCN5C(=O)NCc5ccccc5)[nH]4)cc3)cc2)[nH]1)c1ccccc1` [Compound 197], the EC50 is less than 1 nM.
Under `COC(=O)N[C@@H](C(=O)N1CCC[C@H]1c1ncc(C#Cc2ccc(-c3cnc([C@@H]4CCCN4C(=O)[C@@H](c4ccccc4)N(C)C)[nH]3)cc2)[nH]1)c1ccccc1` [Compound 123] stands less than 1 nM.
With `CN1CCN(C(=O)N[C@@H](C(=O)N2CCC[C@H]2c2ncc(C#Cc3ccc(-c4cnc([C@@H]5CCCN5C(=O)[C@H](NC(=O)N5CCN(C)CC5)c5ccccc5)[nH]4)cc3)[nH]2)c2ccccc2)CC1` [Compound 118], the EC50 is 10 to 999 nM.
